Laboratory results taken from ChEMBL document CHEMBL5634124, “Discovery and optimization of indirubin derivatives as novel ferroptosis inducers for the treatment of colon cancer” (Eur J Med Chem, 2023).
pIC50: −log10 of the molar value. Calls of active or inactive are those of the source. No cut-off for these calls is given here.

Legend:
[1] = system: HCT-116; test: Cytotoxicity against human HCT-116 cells assessed as inhibition of cell viability incubated for 48 hrs by CCK8 assay; assay type: functional, cell-based; settings: HCT-116, 48 h
[2] = Toxicity in BALB/c nude mouse model xenografted with human HCT-116 cells assessed as morphological change in lungs at 25 to 50 mg/kg, ip administered 4 times a week for 3 weeks by H and E staining based analysis; assay type: organism-based; settings: in vivo, 504 h, dose 25-50 mg/kg
[3] = system: HCT-116; test: Effect on SLC7A11 expression in human HCT-116 cells; assay type: functional, cell-based
[4] = system: HCT-116; test: Antitumor activity against human HCT-116 cells xenografted in BALB/c nude mouse model assessed as tumor growth inhibition at 25 mg/kg, ip administered 4 times a week for 3 weeks relative to control; assay type: functional; settings: HCT-116, 504 h, read-out: TGI
[5] = system: HCT-116; test: Induction of ferroptosis in human HCT-116 cells assessed as increase in intracellular lipid ROS level incubated for 24 hrs by CLSM analysis; assay type: functional, cell-based; settings: dose <= 1.0 µM
[6] = system: HCT-116; test: Inhibition of colony formation in human HCT-116 cells treated for 48 hrs followed by replacement of growth medium without compound every other day measured after 2 weeks by crystal violet staining based assay; assay type: functional, cell-based; settings: dose <= 1.0 µM
[7] = system: HCT-116; test: Cytotoxicity against human HCT-116 cells assessed as inhibition of cell viability incubated for 48 hrs in presence of NAC by CCK8 assay; assay type: functional, cell-based
[8] = molecular target: T1, Phospholipid hydroperoxide glutathione peroxidase GPX4 (Homo sapiens) (UniProt P36969); test: Inhibition of GPX4 in human HCT-116 cells assessed as increase in protein ubiquitination upto 1 uM incubated for 24 hrs by co-immunoprecipitation method; assay type: cell-based
T1 sequence (whole entry): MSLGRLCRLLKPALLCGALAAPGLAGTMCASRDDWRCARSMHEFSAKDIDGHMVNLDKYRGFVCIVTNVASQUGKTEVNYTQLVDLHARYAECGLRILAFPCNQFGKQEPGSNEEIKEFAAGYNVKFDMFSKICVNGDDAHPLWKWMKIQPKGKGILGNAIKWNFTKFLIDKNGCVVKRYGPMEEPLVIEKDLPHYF

[9] = system: HCT-116; test: Effect on FSP1 expression in human HCT-116 cells; assay type: functional, cell-based
[10] = Kinetic solubility of compound at pH 7.4; assay type: physicochemical; settings: buffer, read-out: Kinetic_solubility
[11] = Toxicity in BALB/c nude mouse model xenografted with human HCT-116 cells assessed as morphological change in spleen at 25 to 50 mg/kg, ip administered 4 times a week for 3 weeks by H and E staining based analysis; assay type: organism-based; settings: in vivo, 504 h, dose 25-50 mg/kg
[12] = system: HCT-116; test: Cytotoxicity against human HCT-116 cells assessed as inhibition of cell viability incubated for 48 hrs in presence of Nec by CCK8 assay; assay type: functional, cell-based
[13] = molecular target: T1, Phospholipid hydroperoxide glutathione peroxidase GPX4 (Homo sapiens); test: Inhibition of GPX4 in human HCT-116 cells incubated for 24 hrs by Western blot analysis; assay type: cell-based; settings: dose <= 1.0 µM
[14] = molecular target: T1, Phospholipid hydroperoxide glutathione peroxidase GPX4 (Homo sapiens); test: Inhibition of GPX4 in human HCT-116 cells at 0.5 uM by Western blot analysis; assay type: cell-based; settings: time <= 48.0 hrs, TDE = time-dependent effect
[15] = system: HCT-116; test: Induction of ferroptosis in human HCT-116 cells assessed as decrease in GSH level upto 1 uM incubated for 24 hrs; assay type: functional, cell-based
[16] = Toxicity in BALB/c nude mouse model xenografted with human HCT-116 cells assessed as body weight loss at 25 to 50 mg/kg, ip administered 4 times a week for 3 weeks; assay type: organism-based; settings: in vivo, 504 h, dose 25-50 mg/kg
[17] = Toxicity in BALB/c nude mouse model xenografted with human HCT-116 cells assessed as morphological change in kidney at 25 to 50 mg/kg, ip administered 4 times a week for 3 weeks by H and E staining based analysis; assay type: organism-based; settings: in vivo, 504 h, dose 25-50 mg/kg
[18] = Metabolic stability in human liver microsomes assessed as half life at 0.5 uM incubated for 45 mins by LC/MS analysis; assay type: ADME, Microsome
[19] = Metabolic stability in human liver microsomes assessed as intrinsic clearance at 0.5 uM incubated for 45 mins by LC/MS analysis; assay type: ADME, Microsome; settings: read-out: CLH
[20] = system: HCT-116; test: Induction of ferroptosis in human HCT-116 cells assessed as increase in Fe2+ level upto 1 uM incubated for 24 hrs by flow cytometry; assay type: functional, cell-based
[21] = system: HCT-116; test: Cytotoxicity against human HCT-116 cells assessed as inhibition of cell viability incubated for 48 hrs in presence of DFO by CCK8 assay; assay type: functional, cell-based
[22] = system: HCT-116; test: In vivo inhibition of GPX4 in human HCT-116 cells xenografted in BALB/c nude mouse model at 25 to 50 mg/kg, ip administered 4 times a week for 3 weeks by IHC analysis; assay type: functional, organism-based; settings: dose 25-50 mg/kg
[23] = system: HCT-116; test: Cytotoxicity against human HCT-116 cells assessed as inhibition of cell viability incubated for 48 hrs in presence of Fer-1 by CCK8 assay; assay type: functional, cell-based
[24] = system: HCT-116; test: Antitumor activity against human HCT-116 cells xenografted in BALB/c nude mouse model assessed as tumor growth inhibition at 50 mg/kg, ip administered 4 times a week for 3 weeks relative to control; assay type: functional; settings: HCT-116, 504 h, read-out: TGI
[25] = Metabolic stability in human liver microsomes assessed as hepatic clearance rate at 0.5 uM incubated for 45 mins by LC/MS analysis; assay type: ADME, Microsome
[26] = system: HCT-116; test: Effect on ACSL4 expression in human HCT-116 cells; assay type: functional, cell-based
[27] = Toxicity in BALB/c nude mouse model xenografted with human HCT-116 cells assessed as morphological change in liver at 25 to 50 mg/kg, ip administered 4 times a week for 3 weeks by H and E staining based analysis; assay type: organism-based; settings: in vivo, 504 h, dose 25-50 mg/kg
[28] = system: HCT-116; test: Induction of ferroptosis in human HCT-116 cells assessed as increase in intracellular MDA level incubated for 24 hrs; assay type: functional, cell-based; settings: dose <= 1.0 µM
[29] = system: HCT-116; test: Cytotoxicity against human HCT-116 cells assessed as inhibition of cell viability incubated for 48 hrs in presence of 3-MA by CCK8 assay; assay type: functional, cell-based
[30] = system: HCT-116; test: Antitumor activity against human HCT-116 cells xenografted in BALB/c nude mouse model assessed as morphological change in tumor at 25 to 50 mg/kg, ip administered 4 times a week for 3 weeks by H and E staining based analysis; assay type: functional, organism-based; settings: dose 25-50 mg/kg
[31] = system: HCT-116; test: Induction of ferroptosis in human HCT-116 cells assessed as increase in intracellular lipid ROS level incubated for 24 hrs by flow cytometry; assay type: functional, cell-based; settings: dose <= 1.0 µM
[32] = system: HCT-116; test: Cytotoxicity against human HCT-116 cells assessed as inhibition of cell viability incubated for 48 hrs in presence of Z-VAD by CCK8 assay; assay type: functional, cell-based
[33] = Toxicity in BALB/c nude mouse model xenografted with human HCT-116 cells assessed as morphological change in heart at 25 to 50 mg/kg, ip administered 4 times a week for 3 weeks by H and E staining based analysis; assay type: organism-based; settings: in vivo, 504 h, dose 25-50 mg/kg
[34] = system: HCT-116; test: Effect on NCOA4 expression in human HCT-116 cells; assay type: functional, cell-based
[35] = molecular target: T2, Phospholipid hydroperoxide glutathione peroxidase GPX4 (Homo sapiens, UniProt P36969); test: Inhibition of GPX4 (unknown origin) incubated for 1 hr by absorbance based assay
T2 sequence (P36969 whole entry): T1 sequence (whole entry)

With `C#CC(=O)N1CCC(c2ccc(NC(=O)c3ccc4c(c3)C(=O)/C(=C3/C(=O)Nc5ccccc53)N4)cc2)CC1` the pIC50 [1] was < 4.70.
For `C#CC(=O)N1CCN(c2ccc(NC(=O)c3ccc4c(c3)C(=O)/C(=C3/C(=O)Nc5ccccc53)N4)cc2)CC1`, the pIC50 [1] was < 4.70.
For `O=C(CCl)CCCCCC(=O)c1ccc2c(c1)C(=O)/C(=C1/C(=O)Nc3ccccc31)N2`, the pIC50 [1] was 5.66.
For `O=C1Nc2ccccc2/C1=C1/Nc2ccc(C(=O)Nc3ccc(C4CCN(C(=O)CCl)CC4)cc3)cc2C1=O`, the pIC50 [1] was < 4.70.
In the case of `O=C1Nc2ccccc2/C1=C1/Nc2ccc(C(=O)NCC3CCN(C(=O)CCl)CC3)cc2C1=O`, the Activity [2] was “Non-Toxic”, the Activity [3] was “inactive” and the inhibition in vivo at 25 mg/kg [4] was 63.4%. For the same molecule, the Activity [5] was “Dose-Dependent Effect”, the inhibition [6] was “Dose-Dependent Effect” and the inhibition [7] was “inactive”. For the same molecule, the inhibition [8] was “Active”, the Activity [9] was “inactive” and the solubility kinetic [10] was < 0.5 µg/mL. The Activity [11] was “Non-Toxic”, the inhibition [12] was “Active” and the inhibition [13] was “Dose-Dependent Effect”. For the same molecule, the inhibition [14] was “Tde”, the Activity [15] was “Active” and the Activity [16] was “Non-Toxic”. For the same molecule, the Activity [17] was “Non-Toxic”, the half-life at 0.5 µM [18] was 17.1 min and the CLint scaled at 0.5 µM [19] was 95.5 mL/min/kg. The Activity [20] was “Active”, the inhibition [21] was “inactive” and the inhibition [22] was “Active”. The inhibition [23] was “inactive”, the inhibition in vivo at 50 mg/kg [24] was 71.5% and the CLhep predicted at 0.5 µM [25] was 16.9 mL/min/kg. For the same molecule, the Activity [26] was “inactive”, the Activity [27] was “Non-Toxic” and the Activity [28] was “Dose-Dependent Effect”. For the same molecule, the pIC50 [1] was 6.31, the inhibition [29] was “Active” and the Activity [30] was “Active”. For the same molecule, the Activity [31] was “Dose-Dependent Effect”, the inhibition [32] was “Active” and the Activity [33] was “Non-Toxic”. For the same molecule, the Activity [34] was “inactive” and the pIC50 [35] was 5.19.
Work on `C#CC(=O)N1CCN(NC(=O)c2ccc3c(c2)C(=O)/C(=C2/C(=O)Nc4ccccc42)N3)CC1` yielded a pIC50 [1] of 5.46.
With `C#CC(=O)N1CCC(CCNC(=O)c2ccc3c(c2)C(=O)/C(=C2/C(=O)Nc4ccccc42)N3)CC1` the pIC50 [1] was 5.73.
For `C#CC(=O)N1CCN(CCNC(=O)c2ccc3c(c2)C(=O)/C(=C2/C(=O)Nc4ccccc42)N3)CC1`, the pIC50 [1] was 5.20.
With `C=CC(=O)N1CCN(c2ccc(NC(=O)c3ccc4c(c3)C(=O)/C(=C3/C(=O)Nc5ccccc53)N4)cc2)CC1` the pIC50 [1] was < 4.70.
In the case of `C#CC(=O)N1CCC(CNC(=O)c2ccc3c(c2)C(=O)/C(=C2/C(=O)Nc4ccccc42)N3)CC1`, the pIC50 [1] was 6.00.
Work on `O=C1Nc2ccccc2/C1=C1/Nc2ccc(C(=O)NN3CCN(C(=O)CCl)CC3)cc2C1=O` yielded a pIC50 [1] of 5.84.
For `O=C(CCl)CCC(=O)c1ccc2c(c1)C(=O)/C(=C1/C(=O)Nc3ccccc31)N2`, the pIC50 [1] was < 4.70.
With `C=CC(=O)CCCC(=O)c1ccc2c(c1)C(=O)/C(=C1/C(=O)Nc3ccccc31)N2` the pIC50 [1] was < 4.70.
With `C=CC(=O)CCC(=O)c1ccc2c(c1)C(=O)/C(=C1/C(=O)Nc3ccccc31)N2` the pIC50 [1] was < 4.70.
For `C#CC(=O)N1CCN(C(=O)c2ccc3c(c2)C(=O)/C(=C2/C(=O)Nc4ccccc42)N3)CC1`, the pIC50 [1] was 5.19.
`O=C1Nc2ccccc2/C1=C1/Nc2ccc(C(=O)NC3CCN(C(=O)CCl)CC3)cc2C1=O` showed a pIC50 [1] of 5.74.
Work on `C#CC(=O)CCCCCC(=O)c1ccc2c(c1)C(=O)/C(=C1/C(=O)Nc3ccccc31)N2` yielded a pIC50 [1] of 5.45.
